Reference: ChEMBL document CHEMBL1909046, “DrugMatrix in vitro pharmacology data”

Columns and labels:
[1] = biological target: T1, 5-hydroxytryptamine receptor 2C (Homo sapiens, UniProt P28335); test: DRUGMATRIX: Serotonin (5-Hydroxytryptamine) 5-HT2C radioligand binding (ligand: [3H] Mesulergine); format: cell membranes, CHO-K1, Membrane; details: cho-k1; Not Active = under 50% inhibition at 10 µM
T1 sequence (P28335 whole entry): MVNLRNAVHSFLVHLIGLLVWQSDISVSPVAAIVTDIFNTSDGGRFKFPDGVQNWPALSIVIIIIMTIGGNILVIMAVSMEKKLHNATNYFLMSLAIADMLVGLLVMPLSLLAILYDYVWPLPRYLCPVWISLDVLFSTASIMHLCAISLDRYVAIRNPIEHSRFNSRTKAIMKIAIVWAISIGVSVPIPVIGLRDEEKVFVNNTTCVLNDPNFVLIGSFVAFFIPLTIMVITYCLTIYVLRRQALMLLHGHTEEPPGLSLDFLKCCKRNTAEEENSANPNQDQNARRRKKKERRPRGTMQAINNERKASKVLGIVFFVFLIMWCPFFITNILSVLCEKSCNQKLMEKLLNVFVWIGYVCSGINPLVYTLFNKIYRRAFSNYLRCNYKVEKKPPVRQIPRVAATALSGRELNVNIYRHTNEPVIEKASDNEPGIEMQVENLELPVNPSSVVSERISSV

Cytochrome P450 2C9 = Cytochrome P450 2C9 (Homo sapiens, UniProt P11712); details: bti-tn-5b1-4; also: in other assays of this panel Not Active means under 50% inhibition at 10 µM
[2] = biological target: T2, Cysteinyl leukotriene receptor 1 (Homo sapiens, UniProt Q9Y271); format: cell membranes, Membrane; details: cho-k1; also: in other assays of this panel Not Active means under 50% inhibition at 10 µM
T2 sequence (Q9Y271 whole entry): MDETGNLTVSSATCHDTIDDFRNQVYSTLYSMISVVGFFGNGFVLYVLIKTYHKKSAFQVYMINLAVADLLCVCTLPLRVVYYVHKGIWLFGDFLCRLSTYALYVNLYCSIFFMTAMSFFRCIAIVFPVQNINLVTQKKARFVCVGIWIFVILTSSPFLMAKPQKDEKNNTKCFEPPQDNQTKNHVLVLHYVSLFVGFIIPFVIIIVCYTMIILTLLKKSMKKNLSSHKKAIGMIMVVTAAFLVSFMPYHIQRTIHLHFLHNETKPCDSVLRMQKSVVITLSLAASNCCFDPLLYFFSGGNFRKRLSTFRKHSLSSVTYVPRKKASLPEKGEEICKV

[3] = biological target: T3, Amine oxidase [flavin-containing] A (Homo sapiens, UniProt P21397); test: DRUGMATRIX: Monoamine Oxidase MAO-A enzyme inhibition (substrate: Kynuramine); design: species or system BTI-TN-5B1-4; details: bti-tn-5b1-4; Not Active = under 50% inhibition at 10 µM
T3 sequence (P21397 whole entry): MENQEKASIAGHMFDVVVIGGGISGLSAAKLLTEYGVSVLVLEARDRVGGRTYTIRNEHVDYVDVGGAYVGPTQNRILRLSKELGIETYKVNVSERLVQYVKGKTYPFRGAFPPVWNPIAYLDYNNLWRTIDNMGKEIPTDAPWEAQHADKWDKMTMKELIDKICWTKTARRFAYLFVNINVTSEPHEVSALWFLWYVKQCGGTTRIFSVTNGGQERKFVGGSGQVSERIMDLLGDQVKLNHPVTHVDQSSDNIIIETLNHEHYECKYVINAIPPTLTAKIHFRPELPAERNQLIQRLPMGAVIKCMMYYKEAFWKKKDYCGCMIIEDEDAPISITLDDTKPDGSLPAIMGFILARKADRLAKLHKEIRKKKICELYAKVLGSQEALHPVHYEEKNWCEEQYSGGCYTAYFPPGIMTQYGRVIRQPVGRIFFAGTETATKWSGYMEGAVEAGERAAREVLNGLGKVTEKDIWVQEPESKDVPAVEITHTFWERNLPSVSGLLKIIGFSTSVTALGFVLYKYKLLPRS

[4] = biological target: Sodium-dependent noradrenaline transporter (Homo sapiens, UniProt P23975); test: DRUGMATRIX: Norepinephrine Transporter radioligand binding (ligand: [125I] RTI-55); format: cell membranes, MDCK, Membrane; details: mdck; Not Active = under 50% inhibition at 10 µM
Cytochrome P450 2C19 = Cytochrome P450 2C19 (Homo sapiens, UniProt P33261); details: bti-tn-5b1-4; also: in other assays of this panel Not Active means under 50% inhibition at 10 µM
Sequence of Cytochrome P450 2C19 (P33261 whole entry): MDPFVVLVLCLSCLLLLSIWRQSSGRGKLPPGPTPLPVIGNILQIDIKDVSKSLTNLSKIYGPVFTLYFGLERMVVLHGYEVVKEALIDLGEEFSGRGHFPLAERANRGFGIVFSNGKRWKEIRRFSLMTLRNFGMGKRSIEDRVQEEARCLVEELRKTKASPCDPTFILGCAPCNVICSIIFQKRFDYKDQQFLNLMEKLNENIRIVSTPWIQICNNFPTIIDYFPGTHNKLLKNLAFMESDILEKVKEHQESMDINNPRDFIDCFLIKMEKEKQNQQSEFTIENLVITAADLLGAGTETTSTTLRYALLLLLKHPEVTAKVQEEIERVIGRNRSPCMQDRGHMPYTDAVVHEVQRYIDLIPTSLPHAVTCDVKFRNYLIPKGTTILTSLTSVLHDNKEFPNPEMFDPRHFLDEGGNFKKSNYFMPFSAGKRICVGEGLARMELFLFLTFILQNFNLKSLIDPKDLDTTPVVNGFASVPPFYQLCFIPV

Sequence of Sodium-dependent noradrenaline transporter (P23975 whole entry): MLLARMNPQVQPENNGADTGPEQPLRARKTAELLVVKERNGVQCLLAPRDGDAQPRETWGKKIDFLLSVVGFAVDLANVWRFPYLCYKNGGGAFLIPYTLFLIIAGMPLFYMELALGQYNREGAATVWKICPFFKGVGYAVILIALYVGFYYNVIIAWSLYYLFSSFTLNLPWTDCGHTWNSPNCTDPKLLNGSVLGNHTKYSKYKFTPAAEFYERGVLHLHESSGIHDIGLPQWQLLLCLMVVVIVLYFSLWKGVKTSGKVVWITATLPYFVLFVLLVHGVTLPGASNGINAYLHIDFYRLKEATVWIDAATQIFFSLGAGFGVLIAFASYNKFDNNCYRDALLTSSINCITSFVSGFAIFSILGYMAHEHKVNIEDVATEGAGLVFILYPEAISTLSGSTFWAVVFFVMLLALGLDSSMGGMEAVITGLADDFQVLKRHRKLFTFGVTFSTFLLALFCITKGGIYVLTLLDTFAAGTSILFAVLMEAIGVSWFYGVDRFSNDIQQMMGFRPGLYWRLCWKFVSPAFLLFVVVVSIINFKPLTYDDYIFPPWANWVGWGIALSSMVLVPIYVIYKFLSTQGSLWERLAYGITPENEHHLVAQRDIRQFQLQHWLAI
Sequence of Cytochrome P450 2C9 (P11712 whole entry): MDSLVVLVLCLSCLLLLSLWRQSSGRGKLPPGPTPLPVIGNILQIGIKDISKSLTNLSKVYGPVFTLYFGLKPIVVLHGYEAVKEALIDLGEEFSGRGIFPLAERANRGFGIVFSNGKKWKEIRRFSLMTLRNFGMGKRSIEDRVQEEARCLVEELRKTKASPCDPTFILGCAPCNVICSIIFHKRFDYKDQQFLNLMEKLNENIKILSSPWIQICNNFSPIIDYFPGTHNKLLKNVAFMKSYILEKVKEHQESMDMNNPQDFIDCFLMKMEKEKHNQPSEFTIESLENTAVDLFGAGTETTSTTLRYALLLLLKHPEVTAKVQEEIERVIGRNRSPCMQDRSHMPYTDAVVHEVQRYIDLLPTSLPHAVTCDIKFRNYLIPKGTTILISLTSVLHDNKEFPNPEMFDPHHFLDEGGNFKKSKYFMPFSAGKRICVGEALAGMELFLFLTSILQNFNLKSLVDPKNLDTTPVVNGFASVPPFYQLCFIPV

POLYVINYL ALCOHOL
Not Active: IC50 [1] | Ki [1] | IC50 (Cytochrome P450 2C9) | Ki (Cytochrome P450 2C9) | IC50 [2] | Ki [2] | IC50 [3] | Ki [3] | IC50 [4] | Ki [4] | IC50 (Cytochrome P450 2C19) | Ki (Cytochrome P450 2C19)
